Measured values published in patent US12286632B2, “Rationally-designed synthetic peptide shuttle agents for delivering polypeptide cargos from an extracellular space to the cytosol and/or nucleus of a target eukaryotic cell, uses thereof, methods and kits relating to same” (Feldan Bio Inc., priority 2016, dated 2025).
Ends that are not written are not given here.

What was measured:
THP-1 cells = test: HOXB4-WT transduction: target gene mRNA by real-time PCR (Fold over control) and total RNA (ng/μL) as marker for cell viability; type: cell-based, human; settings: THP-1 cells; for Total RNA in ng/μL (mean ± St. Dev): peptide alone 1 μM, HOXB4-WT 0 μM, marker for cell viability
Procedure: Control and treated cells are transferred to separate sterile 1.5-mL tubes and centrifuged for 5 minutes at 300g. The cell pellets are resuspended in appropriate buffer to lyse the cells. RNAase-free 70% ethanol is then added followed by mixing by pipetting. The lysates are transferred to an RNeasy™ Mini spin column and centrifuged 30 seconds at 13000 RPM. After several washes with appropriate buffers and centrifugation steps, the eluates are collected in sterile 1.5-mL tubes on ice, and the RNA quantity in each tube is then quantified with a spectrophotometer. For DNase treatment, 2 μg of RNA is diluted in 15 μL of RNase-free water. 1.75 μL of 10X DNase buffer and 0.75 μL of DNase is then added, followed by incubation at 37° C. for 15 minutes. For reverse transcriptase treatment, 0.88 μL of EDTA […] is added, followed by incubation at 75° C. for 5 minutes. In a PCR tube, […] of DNase-treated RNA is mixed with 4 μL of iScript™ Reverse transcription Supermix (5X) and […] of nuclease-free water. The mix is incubated in a PCR machine with the following program: 5 min at 25° C., 30 min at 42° C. and 5 min at 85° C. Newly synthesized cDNA is transferred in sterile 1.5-mL tubes and diluted in 2 μL of nuclease-free water. 18 μL per well of a qPCR machine (CFX-96™) mix is then added in a PCR plate for analysis.
Briefly, THP-1 cells were plated at 30 000 cells/well one day before transduction. HOXB4-WT recombinant protein ([…]; Example 14.1) was co-incubated with different concentrations of His-CM18-PTD4 ([…]) and then exposed to THP-1 cells for 2.5 hours in the presence of serum. The cells were subjected to real time-PCR analysis as described in Example 14.2 to measure the mRNA levels of a target gene as a marker for HOXB4 activity, which was then normalized to the target gene mRNA levels detected in the negative control cells (no treatment), to obtain a “Fold over control” value. Total RNA levels (ng/μL) were also measured as a marker for cell viability.
Briefly, THP-1 cells were plated at 30 000 cells/well one day before the first time course experiment. HOXB4-WT recombinant protein (1.5 μM; Example 14.1) was co-incubated with His-CM18-PTD4 (0.8 μM) and then exposed to THP-1 cells for 0, 2.5, 4, 24 or 48 hours in presence of serum. The cells were subjected to real time-PCR analysis as described in Example 14.2 to measure mRNA levels of a target gene as a marker for HOXB4 activity, which was then normalized to the target gene mRNA levels detected in the negative control cells (no treatment), to obtain a “Fold over control” value. Total RNA levels (ng/μL) were also measured as a marker for cell viability.
Briefly, THP-1 cells were plated at 30 000 cells/well one day before the first time course experiment. HOXB4-WT recombinant protein (0.3 μM; Example 14.1) was co-incubated with His-CM18-PTD4 (0.8 μM) and then exposed to THP-1 cells for 0, 0.5, 1, 2, 2.5, 3 or 4 hours in presence of serum. The cells were subjected to real time-PCR analysis as described in Example 14.2 to measure mRNA levels of a target gene as a marker for HOXB4 activity, which was then normalized to target gene mRNA levels detected in the negative control cells (no treatment), to obtain a “Fold over control” value. Total RNA levels (ng/μL) were also measured as a marker for cell viability.
Briefly, THP-1 cells were plated at 30 000 cells/well one day before the first time course experiment. HOXB4-WT recombinant protein (1.5 μM; Example 14.1) co-incubated with the shuttle agents His-CM18-PTD4, TAT-KALA, EB1-PTD4, His-C(LLKK)3C-PTD4 and His-CM18-PTD4-His at 0.8 μM, and then exposed to THP-1 cells for 2.5 hours in presence of serum. The cells were subjected to real time-PCR analysis as described in Example 14.2 to measure mRNA levels of a target gene as a marker for HOXB4 activity, which was then normalized to target gene mRNA levels detected in the negative control cells (no treatment), to obtain a “Fold over control” value. […]

in vitro [1] = settings: human, HeLa cells; for viability: Cell viability (%) (±St Dev.; n = 3)
in vitro [2] = settings: human, NCI-H196 cells
in vitro [3] = settings: human, THP-1 cells
Procedure: One day before the transduction assay was performed, cells in exponential growth phase were harvested and plated in a 96-well plate (20,000 cells per well). The cells were incubated overnight in appropriate growth media containing FBS (see Example 1). The next day, in separate sterile 1.5 mL tubes, cargo protein at the indicated concentration was pre-mixed (pre-incubated) for 1 or 10 min (depending on the protocol) at 37° C. with the peptide(s) to be tested shuttle agents (0.5 to 5 μM) in 50 μL of fresh medium without serum (unless otherwise specified). The media in wells was removed and the cells were washed three times with freshly prepared phosphate buffered saline (PBS) previously warmed at 37° C. The cells were incubated with the cargo protein/shuttle agent mixture at 37° C. for the indicated time (e.g., 1, 5 or 60 min). After the incubation, the cells were quickly washed three times with freshly prepared PBS and/or heparin (0.5 mg/mL) previously warmed at 37° C. The washes with heparin were required for human THP-1 blood cells to avoid undesired cell membrane-bound protein background in subsequent analyses (microscopy and flow cytometry). The cells were finally incubated in 50 μL of fresh medium with serum at 37° C. before analysis.
One day before the transduction assay was performed, suspension cells in exponential growth phase were harvested and plated in a 96-well plate (20,000 cells per well). The cells were incubated overnight in appropriate growth media containing serum (see Example 1). The next day, in separate sterile 1.5-mL tubes, peptides were diluted in sterile distilled water at room temperature (if the cargo is or comprised a nucleic acid, nuclease-free water was used). Cargo protein(s) were then added to the peptides and, if necessary, sterile PBS or cell culture medium (serum-free) was added to obtain the desired concentrations of shuttle agent and cargo in a sufficient final volume to resuspend the cells (e.g., 10 to 100 μL per well in a 96-well plate). The shuttle agent/peptide was then immediately used for experiments. At least three controls were included for each experiment, including: (1) peptide alone (e.g., at highest concentration tested); (2) cargo alone; and (3) without any cargo or shuttle agent. The cells were centrifuged for 2 minutes at 400g, the medium was then removed and the cells were resuspended in PBS previously warmed at 37° C. The cells were centrifuged again 2 minutes at 400g, the PBS removed, and the cells were resuspended with the cargo protein/peptide mixture at 37° C. for the desired length of time. After that, 200 μL of complete medium was added directly on the cells. Cells were centrifuged for 2 minutes at 400g and the medium was removed. The pellet was resuspended and washed in 200 μL of PBS previously warmed at 37° C. After another centrifugation, the PBS was removed and the cells were resuspended in 50 μL of trypsin-EDTA solution for 2 min. 200 of complete medium was directly added and cells were centrifuged for 2 minutes at 400g. The medium was removed and the cells were resuspended in 200 μL of complete medium.
The cells incubated in 50 μL of fresh medium were directly observed by microscopy (Bright-field and fluorescence) at different power fields (4× to 40×). The cells were observed using a CoolSNAP-PRO™ camera (Series A02D874021) and images were acquired using the Image-Proplus™ software.
The fluorescence of GFP was quantified using flow cytometry (Accuri C6, Becton, Dickinson and Company (BD)).

in vitro [4] = settings: human, HCC-78 cells
in vitro [5] = settings: human, HeLa cells
HeLa cells [6] = settings: human, 10 s, 50 µM
HeLa cells [7] = test: Plasmid DNA (pEGFP-C1) transfection by peptides (% cells with GFP signal, cell viability); settings: DNA transfection in HeLa cells using peptides; pEGFP-C1 plasmid
[8] = Cell viability (%) (±St. Dev.; n = 3)

In the case of HOXB4-WT alone, the “Fold over control (mean ± St. Dev)” value (THP-1 cells; HOXB4-WT alone 1.5 μM, no peptide, target gene mRNA by real time-PCR) is reported as 2.5 ± 0.2.

In the case of “KWKLARAFARAIKKLGGSGGGSYARALRRQARTG [FSD10 alone]”, the “Total RNA in ng/μL (mean ± St. Dev)” value (THP-1 cells) is reported as 181 ± 10.7 ng/µL.

Work on “KWKLARAFARAIKKLGGSGGGSYARALRRQARTG [FSD10]” yielded a viability (in vitro [1]) of 79.8 ± 4.73%, a viability at 1 min, 8 µM (in vitro [1]; [8]) of 83.4 ± 6.38% and a viability at 1 min, 10 µM (in vitro [1]; [8]) of 79.8 ± 6.37%. The viability at 2 min, 5 µM (in vitro [1]; [8]) was 55.6 ± 4.28%, the viability at 1 min, 8 µM (in vitro [2]) was 81 ± 8.02% and the viability at 1 min, 10 µM (in vitro [2]) was 85.4 ± 7.66%. It also gave a viability at 2 min, 5 µM (in vitro [2]) of 83.2 ± 7.51%, a viability at 0.5 min, 2 µM (in vitro [3]) of 96.3 ± 2.16% and a viability at 1 min, 1 µM (in vitro [3]) of 93.5 ± 5.64%. It also gave a viability at 1 min, 2 µM (in vitro [3]) of 85.6 ± 5.22%, a viability at 0.025 h, 1 µM (in vitro [3]) of 78.4 ± 6.15% and a viability at 1 min, 8 µM (in vitro [4]) of 76.1 ± 6.19%. It also gave a viability at 1 min, 10 µM (in vitro [4]) of 63.1 ± 5.27%, a viability at 2 min, 5 µM (in vitro [4]) of 83.1 ± 5.99% and a viability (in vitro [5]) of 72.4 ± 8.61%.

Substance KWKLARAFARAIKKLYARALRRQARTG [FSD12] has a viability (in vitro [1]) of 67.8 ± 4.83%, a viability at 1 min, 8 µM (in vitro [2]) of 71.9 ± 6.44% and a viability at 1 min, 10 µM (in vitro [2]) of 72.5 ± 6.29%. It also gave a viability at 2 min, 5 µM (in vitro [2]) of 76.5 ± 6.37%, a viability at 1 min, 8 µM (in vitro [4]) of 66.3 ± 6.03% and a viability at 1 min, 10 µM (in vitro [4]) of 46.5 ± 4.18%. For the same substance, the viability at 2 min, 5 µM (in vitro [4]) was 75.1 ± 6.31% and the viability (in vitro [5]) was 58.6 ± 2.07%.

In the case of “LLKLWSRLLKLWTQGGSGGGSGRRLKAKRAKA [FSD18 alone]”, the “Total RNA in ng/μL (mean ± St. Dev)” value (THP-1 cells) is reported as 157 ± 3.9 ng/µL.

With “RRLSYSRRRFWEAKLAKALAKALAKHLAKALAKALKACEA [SynB3-KALA]” the “Cell viability (%) (±St. Dev.; n = 3)” value (HeLa cells [6]) was 91.1 ± 0.82%.

For “RRRRRRRRRWEAKLAKALAKALAKHLAKALAKALKACEA [9Arg-KALA]”, the “Cell viability (%) (±St. Dev.; n = 3)” value (HeLa cells [6]) was 62.8 ± 5.11%.

In the case of YARAAARQARA [PTD4, reference compound], the “Cell viability (%) (±St. Dev.; n = 3)” value (HeLa cells [6]) is reported as 94 ± 4.5% and the viability (in vitro [5]) is reported as 98.2 ± 0.69%.

For “YGRKKRRQRRRCKKALLALALHHLAHLALHLALALKKA [TAT-LAH4]”, the “Mean % cells with GFP signal (±St. Dev.; n = 3)” value (HeLa cells [7]) was 0.15 ± 0.00% and the viability (in vitro [5]) was 96.2 ± 2.7%.
